Experimental findings from ChEMBL document CHEMBL1201862, “PubChem BioAssay data set” (2004) are described below.

Each structure is given as a SMILES string.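 Results reflect a 48-hour exposure of cells in 96-well plates to compound at five concentrations. The concentration for 50% growth inhibition is given as GI50.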 Calls of active or inactive are those of the source. Cut-off read from the data, not from the text of the source: active = GI50 up to about 1.1 µM and inactive = higher.

As a reminder, the GI50 is the concentration at which growth is held to half of that of the control.

Assay in all cases: DTP human tumour cell line panel, 48 h
The test system of experiment [1] is UO-31.
Experiment [2] relates to SF-268.
The test system of experiment [3] is DU-145.
Experiment [4] relates to SNB-19.
Experiment [5] deals with T47D.
Experiment [6] relates to A498.
Experiment [7] concerns NCI-H522.
Experiment [8] has as its system HCC 2998.
The test system of experiment [9] is M14.
Experiment [10] deals with U-251.
For experiment [11], the system named is A549.
The subject of experiment [12] is SK-MEL-28.
Experiment [13] has as its system PC-3.
The test system of experiment [14] is IGROV-1.
In experiment [15] the test system is RXF 393.
The test system of experiment [16] is HOP-62.
For experiment [17], the system named is HT-29.
Experiment [18] concerns NCI-H460.
The test system of experiment [19] is HL-60.
Experiment [20] deals with K562.

In the case of `Cn1c(=O)oc2cc(C(O)CN3CCN(Cc4ccc5c(c4)OCO5)CC3)ccc21` (stereo not given), the GI50 in [1], in experiment [2], in [3], in [4], in [5] and in experiment [6] was > 100 µM (inactive) in each case. Besides, the GI50 in experiment [7], in [8], in experiment [9], in experiment [10], in experiment [11] and in experiment [12] was > 100 µM (inactive) in each case. The GI50 in experiment [13], in experiment [14], in experiment [15], in experiment [16], in experiment [17] and in experiment [18] was > 100 µM (inactive) throughout. The GI50 in [19] and in [20] was > 100 µM (inactive) in each case.
With `C=C(C)C(=O)OC1C[C@H](COC(C)=O)C2CC=C(C)C2C2OC(=O)C(=C)[C@H]12` (stereo not given in full), the GI50 is 2.2 µM (inactive) in experiment [1]; 2.4 µM (inactive) in experiment [2]; 6.19 µM (inactive) in experiment [3]; 16.9 µM (inactive) in experiment [4]; 4.98 µM (inactive) in experiment [5]; 14.3 µM (inactive) in [6]. In addition, the GI50 in experiment [7] is 1.45 µM (inactive); in experiment [8] it was 12.2 µM (inactive); in experiment [9] it was 2.07 µM (inactive); in experiment [10] it was 8.67 µM (inactive); in [11], 17 µM (inactive); in [12], 2.41 µM (inactive). Also, the GI50 in experiment [13] was 7.24 µM (inactive); in experiment [14], 11.7 µM (inactive); in experiment [15], 3.81 µM (inactive); in [16] it was 13.3 µM (inactive); in experiment [17], 4.25 µM (inactive); in [18], 15 µM (inactive). For the same compound, the figures for the 50% growth inhibitory concentration (GI50) in experiment [19] and in experiment [20] were 0.815 µM (active) and 1.87 µM (inactive), respectively.
With `COC(=O)[C@H]1[C@H](OC(=O)[C@@H](OC)c2ccccc2)ON2CC[C@@H](OC(=O)c3ccccc3)[C@H]12`, the GI50 in experiment [1] was > 100 µM (inactive); in experiment [2] it was 54.3 µM (inactive); in experiment [3], > 100 µM (inactive); in experiment [4], > 100 µM (inactive); in [5], 91.2 µM (inactive); in experiment [6], 9.38 µM (inactive). In addition, the GI50 was 2.65 µM (inactive) in experiment [7]; > 100 µM (inactive) in experiment [8]; > 100 µM (inactive) in experiment [9]; 70.1 µM (inactive) in experiment [10]; > 100 µM (inactive) in experiment [11]; > 100 µM (inactive) in experiment [12]. The GI50 is > 100 µM (inactive) in [13]; 49.9 µM (inactive) in experiment [14]; 64.4 µM (inactive) in [15]; 35.1 µM (inactive) in [16]; 51.3 µM (inactive) in experiment [17]; > 100 µM (inactive) in experiment [18]. Besides, the GI50 in experiment [19] and in experiment [20] was > 100 µM (inactive) throughout.
Consider `O=C(/C=C/c1ccccc1)CCN1CCOCC1`, for which the GI50 in experiment [1] was 16.6 µM (inactive); in [2] it was 12 µM (inactive); in experiment [3], 18.8 µM (inactive); in experiment [4], 23.8 µM (inactive); in [5], 17.7 µM (inactive); in experiment [6], 19 µM (inactive). The GI50 was 3.87 µM (inactive) in [7]; 20 µM (inactive) in [8]; 14.8 µM (inactive) in experiment [9]; 12.9 µM (inactive) in experiment [10]; 24.2 µM (inactive) in [11]; 11.4 µM (inactive) in experiment [12]. The GI50 was 17.4 µM (inactive) in experiment [13]; 15.7 µM (inactive) in experiment [14]; 12.7 µM (inactive) in [15]; 27.3 µM (inactive) in experiment [16]; 13.6 µM (inactive) in [17]; 17.8 µM (inactive) in experiment [18]. Also, the results for the GI50 in experiment [19] and in [20] were 2.12 µM (inactive) and 2.15 µM (inactive), respectively.
